What all share (experiment): relative viability (nuclei count vs DMSO), 5 days (fraction); higher = more cells survive
Compound in the test “MK-2206 + Dasatinib”: NC1(c2ccc(-c3nc4ccn5c(=O)[nH]nc5c4cc3-c3ccccc3)cc2)CCC1 [MK-2206] + Cc1nc(Nc2ncc(C(=O)Nc3c(C)cccc3Cl)s2)cc(N2CCN(CCO)CC2)n1 [Dasatinib] (partner 0.075 µM)
A digest of the protocol: (§1)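 The day after seeding in 1536-well plates, lung cancer cell lines were treated by pin tool with a single drug, or with a fixed anchor-drug dose together with five library-drug doses (not always all listed) in √10 steps. After 5 days, a combined fix-and-stain solution (final 0.05% Triton X-100, 1% formaldehyde, 1 ug/ml Hoechst) was added. Nuclei counted on 4× images gave relative viability as treated counts over vehicle counts, reported as the median of duplicate plates.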

Compound in the test “MK-2206 + Palbociclib”: NC1(c2ccc(-c3nc4ccn5c(=O)[nH]nc5c4cc3-c3ccccc3)cc2)CCC1 [MK-2206] + CC(=O)c1c(C)c2cnc(Nc3ccc(N4CCNCC4)cn3)nc2n(C2CCCC2)c1=O [Palbociclib] (partner 0.5 µM)
In a few lines: as §1

Compound in the test “MK-2206 + Tozasertib”: NC1(c2ccc(-c3nc4ccn5c(=O)[nH]nc5c4cc3-c3ccccc3)cc2)CCC1 [MK-2206] + Cc1cc(Nc2cc(N3CCN(C)CC3)nc(Sc3ccc(NC(=O)C4CC4)cc3)n2)n[nH]1 [Tozasertib] (partner 0.1 µM)
A digest of the protocol: as §1

Compound in the test “MK-2206 + Foretinib”: NC1(c2ccc(-c3nc4ccn5c(=O)[nH]nc5c4cc3-c3ccccc3)cc2)CCC1 [MK-2206] + COc1cc2c(Oc3ccc(NC(=O)C4(C(=O)Nc5ccc(F)cc5)CC4)cc3F)ccnc2cc1OCCCN1CCOCC1 [Foretinib] (partner 0.25 µM)
A digest of the protocol:
as §1

Compound in the test “Pictilisib + Crizotinib”: CS(=O)(=O)N1CCN(Cc2cc3nc(-c4cccc5[nH]ncc45)nc(N4CCOCC4)c3s2)CC1 [Pictilisib] + C[C@@H](Oc1cc(-c2cnn(C3CCNCC3)c2)cnc1N)c1c(Cl)ccc(F)c1Cl [Crizotinib] (partner 1 µM)
A digest of the protocol: as §1

The record followed here is the supplement of paper PMC10307832.

For the cell line UMC-11, the relative viability with MK-2206 + Dasatinib (first compound 0.01 µM) stood at 0.465; in the test with MK-2206 + Dasatinib (first compound 0.03162 µM), 0.434; with MK-2206 + Dasatinib (first compound 0.3162 µM) it was 0.503; with MK-2206 + Dasatinib (first compound 1 µM) it was 0.475; with MK-2206 + Palbociclib (first compound 0.01 µM) it was 0.318; with MK-2206 + Palbociclib (first compound 0.03162 µM), 0.359. The relative viability is 0.288 with MK-2206 + Palbociclib (first compound 0.3162 µM); 0.317 in the test with MK-2206 + Palbociclib (first compound 1 µM); 0.194 with MK-2206 + Tozasertib (first compound 0.01 µM); 0.2 with MK-2206 + Tozasertib (first compound 0.03162 µM); 0.214 with MK-2206 + Tozasertib (first compound 0.3162 µM); 0.192 with MK-2206 + Tozasertib (first compound 1 µM). Besides, the relative viability in the test with MK-2206 + Foretinib (first compound 0.01 µM) came to 1.08; in the test with MK-2206 + Foretinib (first compound 0.03162 µM), 1.1; with MK-2206 + Foretinib (first compound 0.3162 µM), 1.16; with MK-2206 + Foretinib (first compound 1 µM), 1.05; with Pictilisib + Crizotinib (first compound 0.02 µM), 0.633; with Pictilisib + Crizotinib (first compound 0.06325 µM) it was 0.887. In addition, the relative viability came out at 0.733 with Pictilisib + Crizotinib (first compound 0.6325 µM) and 0.58 in the test with Pictilisib + Crizotinib (first compound 2 µM).
